Key:
MCT4 [1] = target: T1, MCT4 (Homo sapiens, UniProt O15427); assay: Assay (a): lactate efflux from SK-Br-3 cells (lactate in media, 4 h); assay type: cell-based; set-up: a natively glycolytic human breast adenocarcinoma line predominantly expressing MCT4; host or cells: SK-Br-3; conditions: mean of at least three repeats (Example 32, marked *, two repeats), read-out: MCT4 lactate efflux pIC50 (SKBR3) (converted)
T1 sequence (O15427 1-465): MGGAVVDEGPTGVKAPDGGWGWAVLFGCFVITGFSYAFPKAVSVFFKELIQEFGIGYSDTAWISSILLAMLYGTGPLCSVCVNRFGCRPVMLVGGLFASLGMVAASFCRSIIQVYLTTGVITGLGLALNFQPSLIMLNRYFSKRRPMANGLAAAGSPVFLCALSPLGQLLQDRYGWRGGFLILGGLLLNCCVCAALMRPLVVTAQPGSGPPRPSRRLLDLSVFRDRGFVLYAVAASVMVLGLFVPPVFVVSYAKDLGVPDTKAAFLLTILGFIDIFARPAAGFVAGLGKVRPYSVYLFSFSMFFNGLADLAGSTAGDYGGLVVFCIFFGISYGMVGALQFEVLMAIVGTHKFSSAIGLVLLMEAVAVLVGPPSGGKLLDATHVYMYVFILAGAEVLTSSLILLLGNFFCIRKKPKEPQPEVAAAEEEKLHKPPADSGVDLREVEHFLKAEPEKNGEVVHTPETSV
Description: Assay plates were lidded and incubated for 4 hours at 37° C. and 5% CO2.

MCT4 [2] = target: T1, MCT4; assay: cell-based
Description: Cells were loaded with the pH sensitive dye BCECFAM(Invitrogen #B11150) before being washed to remove excess dye and seeded into the assay plates—directly onto the test compound—at a density of 15,000 cells/well (NCI—H358) or 30,000 cells/well (K562), in 30 μl HBSS with 1 mM [final] […] Assay plates were lidded and spun in a plate centrifuge at 170 g for 1 minute. Plates were then wrapped in foil and incubated in the dark for 1 hour at room temperature.
Following incubation with test compound, 10 μl of 25 mM Sodium-L-Lactate (Sigma #L7022) made up in HBSS with 1 mM [final] […] This addition was performed directly on the FLIPR Tetra platform (Molecular Devices) as part of a real-time kinetic read protocol. […] A percentage change from base-line was calculated for each test well and values normalised to control wells—treated with either DMSO (maximum assay signal) or chemistry related to that described in this patent (minimum assay signal)—before fitting concentration response curves to determine an IC50 value.

Row | IC50 (MCT4 [1]) [nM] | IC50 (MCT4 [2]) [nM] | SMILES
1 | 2 |  | Cc1nc2nc(C)c(C[C@@H]3CCN(c4cnc(-c5ccc(CN6C[C@@H](C)N[C@@H](C)C6)cc5)nc4)C3)c(C)n2n1 [Example 14, 6-(((R)-1-(2-(4-(((3R,5S)-3,5-dimethylpiperazin-1-yl)methyl)phenyl)pyrimidin-5-yl)pyrrolidin-3-yl)methyl)-2,5,7-trimethyl-[1,2,4]triazolo[1,5-a]pyrimidine]
2 | 0.316 |  | Cc1nc2nc(C)c(C[C@@H]3CCN(c4ccc(-c5cnc(CN6CCOCC6)cn5)nc4)C3)c(C)n2n1 [Example 7, (R)-4-((5-(5-(3-((2,5,7-trimethyl-[1,2,4]triazolo[1,5-a]pyrimidin-6-yl)methyl)pyrrolidin-1-yl)pyridin-2-yl)pyrazin-2-yl)methyl)morpholine]
3 | 0.316 |  | Cc1nc2nc(C)c(C[C@@H]3CCN(c4ccc(-c5ccc(CN6CCOCC6)nc5)cn4)C3)c(C)n2n1 [Example 1, (R)-4-((6′-(3-((2,5,7-trimethyl-[1,2,4]triazolo[1,5-a]pyrimidin-6-yl)methyl)pyrrolidin-1-yl)-[3,3′-bipyridin]-6-yl)methyl)morpholine]
4 | 2.51 | 6.31 | Cc1nc2nc(C)c(O[C@@H]3CCN(c4cnc(-c5ccc(CN6CCOCC6)cc5)cn4)C3)c(C)n2n1 [Example 78, (R)-4-(4-(5-(3-((2,5,7-trimethyl-[1,2,4]triazolo[1,5-a]pyrimidin-6-yl)oxy)pyrrolidin-1-yl)pyrazin-2-yl)benzyl)morpholine]
5 | 3.98 | 31.6 | CCN1CCN(Cc2ccc(-c3cnc(N4CC[C@@H](Cc5c(C)nc6nc(C)nn6c5C)C4)cn3)cc2)CC1 [Example 38, (R)-6-((1-(5-(4-((4-ethylpiperazin-1-yl)methyl)phenyl)pyrazin-2-yl)pyrrolidin-3-yl)methyl)-2,5,7-trimethyl-[1,2,4]triazolo[1,5-a]pyrimidine]
6 | 0.251 |  | Cc1nc2nc(C)c(C[C@@H]3CCN(c4ccc(-c5cnc(CN6CCOCC6)nc5)cc4)C3)c(C)n2n1 [Example 28, (R)-4-((5-(4-(3-((2,5,7-trimethyl-[1,2,4]triazolo[1,5-a]pyrimidin-6-yl)methyl)pyrrolidin-1-yl)phenyl)pyrimidin-2-yl)methyl)morpholine]
7 | 0.631 | 20 | Cc1nc2nc(C)c(C[C@@H]3CCN(c4cnc(-c5ccc(CN6CCN(C)CC6)c(C)c5)cn4)C3)c(C)n2n1 [Example 56, (R)-2,5,7-trimethyl-6-((1-(5-(3-methyl-4-((4-methylpiperazin-1-yl)methyl)phenyl)pyrazin-2-yl)pyrrolidin-3-yl)methyl)-[1,2,4]triazolo[1,5-a]pyrimidine]
8 | 1.26 | 20 | Cc1nc2nc(C)c(C[C@@H]3CCN(c4ccc(-c5cnc(CN6CCN(C)CC6)cn5)cc4)C3)c(C)n2n1 [Example 21, (R)-2,5,7-trimethyl-6-((1-(4-(5-((4-methylpiperazin-1-yl)methyl)pyrazin-2-yl)phenyl)pyrrolidin-3-yl)methyl)-[1,2,4]triazolo[1,5-a]pyrimidine]
9 | 0.2 | 7.94 | Cc1nc2nc(C)c(C[C@@H]3CCN(c4cnc(-c5ccc(CN6CCOCC6)cc5)nc4)C3)c(C)n2n1 [Example 19, (R)-4-(4-(5-(3-((2,5,7-trimethyl-[1,2,4]triazolo[1,5-a]pyrimidin-6-yl)methyl)pyrrolidin-1-yl)pyrimidin-2-yl)benzyl)morpholine]
10 | 2.51 |  | Cc1nc2nc(C)c(C[C@@H]3CCN(c4cnc(-c5ccc(CN6CCN(C)CC6)cn5)cn4)C3)c(C)n2n1 [Example 39, (R)-2,5,7-trimethyl-6-((1-(5-(5-((4-methylpiperazin-1-yl)methyl)pyridin-2-yl)pyrazin-2-yl)pyrrolidin-3-yl)methyl)-[1,2,4]triazolo[1,5-a]pyrimidine]
11 | 0.631 |  | COCCN1CCN(Cc2ccc(-c3ncc(N4CC[C@@H](Cc5c(C)nc6nc(C)nn6c5C)C4)cn3)cc2)CC1 [Example 18, (R)-6-((1-(2-(4-((4-(2-methoxyethyl)piperazin-1-yl)methyl)phenyl)pyrimidin-5-yl)pyrrolidin-3-yl)methyl)-2,5,7-trimethyl-[1,2,4]triazolo[1,5-a]pyrimidine]
12 | 0.2 |  | Cc1nc2nc(C)c(C[C@@H]3CCN(c4cnc(-c5ccc(CN6CCC(S(C)(=O)=O)CC6)cc5)cn4)C3)c(C)n2n1 [Example 46, 2,5,7-trimethyl-6-({(3R)-1-[5-(4-{[4-(methylsulfonyl)piperidin-1-yl]methyl}phenyl)pyrazin-2-yl]pyrrolidin-3-yl}methyl)[1,2,4]triazolo[1,5-a]pyrimidine]
13 | 3.98 |  | COc1cc(CN2CCN(C)CC2)ccc1-c1ncc(N2CC[C@@H](Cc3c(C)nc4nc(C)nn4c3C)C2)cn1 [Example 12, (R)-6-((1-(2-(2-methoxy-4-((4-methylpiperazin-1-yl)methyl)phenyl)pyrimidin-5-yl)pyrrolidin-3-yl)methyl)-2,5,7-trimethyl-[1,2,4]triazolo[1,5-a]pyrimidine]
14 | 1 |  | Cc1nc2nc(C)c(C[C@@H]3CCN(c4cnc(-c5ccc(CN6CCN(CC(=O)N(C)C)CC6)cc5)nc4)C3)c(C)n2n1 [Example 15, (R)—N,N-dimethyl-2-(4-(4-(5-(3-((2,5,7-trimethyl-[1,2,4]triazolo[1,5-a]pyrimidin-6-yl)methyl)pyrrolidin-1-yl)pyrimidin-2-yl)benzyl)piperazin-1-yl)acetamide]
15 | 2.51 |  | Cc1nc2nc(C)c(C[C@@H]3CCN(c4cnc(-c5ccc(CN6CCN(C)[C@H](C)C6)cc5)cn4)C3)c(C)n2n1 [Example 33, 6-(((R)-1-(5-(4-(((R)-3,4-dimethylpiperazin-1-yl)methyl)phenyl)pyrazin-2-yl)pyrrolidin-3-yl)methyl)-2,5,7-trimethyl-[1,2,4]triazolo[1,5-a]pyrimidine]
16 | 0.794 |  | Cc1nc2nc(C)c(C[C@@H]3CCN(c4cnc(-c5ccc(CN6CCCN(C)CC6)cc5)cn4)C3)c(C)n2n1 [Example 83, (R)-2,5,7-trimethyl-6-((1-(5-(4-((4-methyl-1,4-diazepan-1-yl)methyl)phenyl)pyrazin-2-yl)pyrrolidin-3-yl)methyl)-[1,2,4]triazolo[1,5-a]pyrimidine]
17 | 0.794 |  | Cc1nc2nc(C)c(C[C@@H]3CCN(c4ccc(-c5ncc(CN6CCN(C)CC6)cn5)cc4)C3)c(C)n2n1 [Example 25, (R)-2,5,7-trimethyl-6-((1-(4-(5-((4-methylpiperazin-1-yl)methyl)pyrimidin-2-yl)phenyl)pyrrolidin-3-yl)methyl)-[1,2,4]triazolo[1,5-a]pyrimidine]
18 | 2.51 |  | Cc1nc2nc(C)c(C[C@@H]3CCN(c4cnc(-c5ccc(CN6CCN(C)CC6)cc5C)nc4)C3)c(C)n2n1 [Example 13, (R)-2,5,7-trimethyl-6-((1-(2-(2-methyl-4-((4-methylpiperazin-1-yl)methyl)phenyl)pyrimidin-5-yl)pyrrolidin-3-yl)methyl)-[1,2,4]triazolo[1,5-a]pyrimidine]
19 | 0.316 |  | CC(=O)N1CCCN(Cc2ccc(-c3cnc(N4CC[C@@H](Cc5c(C)nc6nc(C)nn6c5C)C4)cn3)cc2)CC1 [Example 79, 1-[4-[[4-[5-[(3R)-3-[(2,5,7-trimethyl-[1,2,4]triazolo[1,5-a]pyrimidin-6-yl)methyl]pyrrolidin-1-yl]pyrazin-2-yl]phenyl]methyl]-1,4-diazepan-1-yl]ethanone]
20 | 1 |  | Cc1nc2nc(C)c(C[C@@H]3CCN(c4ccc(-c5cnc(CN6CCN(C)CC6)nc5)cc4)C3)c(C)n2n1 [Example 22, (R)-2,5,7-trimethyl-6-((1-(4-(2-((4-methylpiperazin-1-yl)methyl)pyrimidin-5-yl)phenyl)pyrrolidin-3-yl)methyl)-[1,2,4]triazolo[1,5-a]pyrimidine]
21 | 0.631 |  | Cc1nc2nc(C)c(C[C@@H]3CCN(c4cnc(-c5ccc(CN6CCC(CO)CC6)cc5)cn4)C3)c(C)n2n1 [Example 44, {1-[4-(5-{(3R)-3-[(2,5,7-trimethyl[1,2,4]triazolo[1,5-a]pyrimidin-6-yl)methyl]pyrrolidin-1-yl}pyrazin-2-yl)benzyl]piperidin-4-yl}methanol]
22 | 0.251 |  | CC(=O)N1CCN(Cc2ccc(-c3ncc(N4CC[C@@H](Cc5c(C)nc6nc(C)nn6c5C)C4)cn3)cc2)CC1 [Example 17, (R)-1-(4-(4-(5-(3-((2,5,7-trimethyl-[1,2,4]triazolo[1,5-a]pyrimidin-6-yl)methyl)pyrrolidin-1-yl)pyrimidin-2-yl)benzyl)piperazin-1-yl)ethanone]
23 | 0.2 |  | Cc1nc2nc(C)c(C[C@@H]3CCN(c4cnc(-c5ccc(CN6CCS(=O)(=O)CC6)cc5)cn4)C3)c(C)n2n1 [Example 45, 6-{[(3R)-1-(5-{4-[(1,1-dioxidothiomorpholin-4-yl)methyl]phenyl}pyrazin-2-yl)pyrrolidin-3-yl]methyl}-2,5,7-trimethyl[1,2,4]triazolo[1,5-a]pyrimidine]
24 | 1.26 |  | Cc1nc2nc(C)c(C[C@@H]3CCN(c4cnc(-c5ccc(CN6C[C@@H](C)N(C)[C@@H](C)C6)cc5)cn4)C3)c(C)n2n1 [Example 32, 2,5,7-trimethyl-6-(((R)-1-(5-(4-(((3R,5S)-3,4,5-trimethylpiperazin-1-yl)methyl)phenyl)pyrazin-2-yl)pyrrolidin-3-yl)methyl)-[1,2,4]triazolo[1,5-a]pyrimidine]

Source: patent publication US12503473B2, “Triazolopyrimidine compounds and their use in treating cancer” (Dizal (Jiangsu) Pharmaceutical Co., Ltd., priority 2018, dated 2025)
